Measurements taken from US20190117651A1, “COMPOSITION FOR STIMULATING SIRTUIN ACTIVITY” (Bitop AG, priority 2016, published 2019).

Tested on: sirtuin activity in the lung tissue
Experiment: repeated application of a solution containing ectoine into the lungs of rats; sirtuin activity in the lung tissue
Type: in vivo
Text: The composition proposed by the invention can generally be adopted for the treatment and/or prophylaxis of aging symptoms and for influencing self-renewal processes, cell differentiation and cell proliferation. The composition is of particular importance in the treatment of aging symptoms of the lung, especially of the senile emphysema. This is characterized by the degeneration of the alveolar structures in the lungs, which leads to a reduction of the lung surface which is available for the exchange of gas. In such cases, the patient finds it hard to breathe properly. […] The aging of tissue is attributable to an altered gene activity during the self-renewal and cell differentiation processes in (lung) tissue, which is regulated by the accessibility of DNA by histones and is thus also dependent on sirtuins.

CC1=NCC[C@@H](C(=O)O)N1 (stereo in doubt) [ectoine, 2-methyl-1,4,5,6-tetrahydropyrimidine-4-carboxylic acid]
loss of sirtuin activity in the lung tissue: significant reduction of the loss of sirtuin activity
